Test results reported in patent publication US20100061982A1, “3-SUBSTITUTED-1H-INDOLE, 3-SUBSTITUTED-1H-PYRROLO[2,3-B]PYRIDINE AND 3-SUBSTITUTED-1H-PYRROLO[3,2-B]PYRIDINE COMPOUNDS, THEIR USE AS MTOR KINASE AND PI3 KINASE INHIBITORS, AND THEIR SYNTHESES” (priority 2008, published 2010).
pIC50: −log10 of the molar value. Values after ≈ are worked out from the molar mass of the structure shown. Where two headings read alike, the source gives them in different places.

Experiments:
PI3K alpha = PI3K alpha (Homo sapiens, UniProt P42336); test: PI3K-alpha Fluorescence Polarization Assay; format: biochemical
Sequence of PI3K alpha (P42336 whole entry, species assumed): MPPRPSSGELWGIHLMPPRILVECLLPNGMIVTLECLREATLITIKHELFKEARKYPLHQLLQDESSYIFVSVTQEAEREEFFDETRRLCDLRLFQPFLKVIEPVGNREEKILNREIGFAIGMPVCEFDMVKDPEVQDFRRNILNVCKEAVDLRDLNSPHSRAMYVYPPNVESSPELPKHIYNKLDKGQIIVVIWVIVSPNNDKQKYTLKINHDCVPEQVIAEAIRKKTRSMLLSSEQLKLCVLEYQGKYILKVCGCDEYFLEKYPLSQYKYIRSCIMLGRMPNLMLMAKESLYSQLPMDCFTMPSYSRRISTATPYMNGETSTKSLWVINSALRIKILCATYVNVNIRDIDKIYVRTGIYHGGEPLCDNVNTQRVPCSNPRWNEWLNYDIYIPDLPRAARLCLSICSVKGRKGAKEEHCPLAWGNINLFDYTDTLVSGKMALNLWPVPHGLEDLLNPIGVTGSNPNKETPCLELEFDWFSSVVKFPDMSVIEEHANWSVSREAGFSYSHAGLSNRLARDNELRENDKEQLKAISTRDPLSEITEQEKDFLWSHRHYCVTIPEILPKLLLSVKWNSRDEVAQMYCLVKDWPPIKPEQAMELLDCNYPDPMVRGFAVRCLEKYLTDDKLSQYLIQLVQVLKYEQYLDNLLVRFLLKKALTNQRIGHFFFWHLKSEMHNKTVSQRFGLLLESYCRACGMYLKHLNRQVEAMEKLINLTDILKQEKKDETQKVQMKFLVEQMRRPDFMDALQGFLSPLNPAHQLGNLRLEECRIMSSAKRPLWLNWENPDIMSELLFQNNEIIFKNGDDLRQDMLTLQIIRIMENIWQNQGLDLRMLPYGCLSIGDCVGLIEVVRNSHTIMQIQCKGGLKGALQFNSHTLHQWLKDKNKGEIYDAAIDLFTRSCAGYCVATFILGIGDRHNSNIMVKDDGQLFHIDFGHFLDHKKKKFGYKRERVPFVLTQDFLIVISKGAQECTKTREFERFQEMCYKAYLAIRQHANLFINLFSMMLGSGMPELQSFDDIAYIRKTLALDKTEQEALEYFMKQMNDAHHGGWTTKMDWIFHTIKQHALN
Sequence of PI3K alpha (P27986 whole entry partner, species assumed): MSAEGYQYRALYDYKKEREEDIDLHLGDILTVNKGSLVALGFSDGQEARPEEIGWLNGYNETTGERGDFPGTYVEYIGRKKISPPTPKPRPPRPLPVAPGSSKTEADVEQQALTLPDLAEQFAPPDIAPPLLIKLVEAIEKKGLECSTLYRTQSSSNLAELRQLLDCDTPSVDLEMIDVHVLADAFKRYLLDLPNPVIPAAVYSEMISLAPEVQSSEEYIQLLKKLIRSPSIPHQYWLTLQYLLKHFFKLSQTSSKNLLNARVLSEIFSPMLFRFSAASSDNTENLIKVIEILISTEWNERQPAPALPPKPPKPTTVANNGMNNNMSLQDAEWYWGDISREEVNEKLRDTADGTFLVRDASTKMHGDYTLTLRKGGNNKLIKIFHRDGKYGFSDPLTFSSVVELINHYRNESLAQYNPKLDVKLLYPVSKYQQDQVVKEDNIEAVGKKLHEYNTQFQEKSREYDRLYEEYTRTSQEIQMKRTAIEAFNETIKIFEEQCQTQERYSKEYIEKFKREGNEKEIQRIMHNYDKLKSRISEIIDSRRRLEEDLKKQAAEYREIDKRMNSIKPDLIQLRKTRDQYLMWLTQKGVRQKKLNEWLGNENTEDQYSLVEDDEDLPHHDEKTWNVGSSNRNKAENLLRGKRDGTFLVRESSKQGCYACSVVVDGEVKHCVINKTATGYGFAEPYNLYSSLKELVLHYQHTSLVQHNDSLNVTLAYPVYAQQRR

[1] = Microsome Stability (15 min), human; format: in vitro ADME; conditions: microsomes
[2] = Microsome Stability (15 min), nude mouse; format: in vitro ADME; conditions: microsomes
[3] = Microsome Stability (15 min), rat; format: in vitro ADME; conditions: microsomes
[4] = PAMPA permeability pH 7.4
[5] = Buffer Stability (37° C.)
[6] = Plasma Stability (37° C.), rat
[7] = Plasma Stability (37° C.), nude mouse
mTOR = mTOR (Homo sapiens, UniProt P42345); test: mTOR Enzyme Assay (DELFIA, purified enzyme); format: biochemical; design: FLAG
Solubility pH 7.4 = conditions: pH 7.4, aqueous buffer
[8] = CACO2 permeability a-b/b-a; format: in vitro ADME; conditions: human, Caco-2
[9] = In vivo blood/plasma and tumor levels of prodrug and metabolites after 50 mg, kg po; conditions: 50 mg
[10] = Phase I (NADPH), read-out: Microsome Stability (15 min) T ½ Phase I human
[11] = nude, mouse, Phase I (NADPH), read-out: Microsome Stability (15 min) T ½ Phase I nude mouse
[12] = Phase I (NADPH), read-out: Microsome Stability (15 min) T ½ Phase I rat
[13] = value after the slash in Table VIc, read-out: Microsome Stability (15 min) T ½ human, second value of cell
[14] = nude, mouse, value after the slash in Table VIc, read-out: Microsome Stability (15 min) T ½ nude mouse, second value of cell
[15] = value after the slash in Table VIc, read-out: Microsome Stability (15 min) T ½ rat, second value of cell

Row | half-life [1, 10] [min] | half-life [2, 11] [min] | Structure (SMILES) | half-life [3, 12] [min] | PAMPA Pe [4] | pIC50 (PI3K alpha) | pIC50 (mTOR; read-out: mTOR Mean IC50) | solubility (Solubility pH 7.4) [µg/mL] | further results
1 | 12 | 9 | COc1ccc2[nH]c(-c3ccccc3)c(/C=C3\Oc4cc(OC(C)=O)cc(OC(C)=O)c4C3=O)c2c1 [Example 3, (2Z)-2-[(5-methoxy-2-phenyl-1H-indol-3-yl)methylene]-3-oxo-2,3-dihydro-1-benzofuran-4,6-diyl diacetate] | > 30 | 0 10e−6 cm/s | – | – | – | pIC50 (PI3K alpha; read-out: PI3K alpha Mean IC50): 8.70; Buffer Stability (37° C.) % Remaining (at 16-23 hours) SGF [5]: 66%; Buffer Stability (37° C.) % Remaining (at 16-23 hours) SIF [5]: 0%; Buffer Stability (37° C.) % Remaining (at 16-23 hours) pH 1 [5]: 2%; Buffer Stability (37° C.) % Remaining (at 16-23 hours) pH 4.5 [5]: 64%; Buffer Stability (37° C.) % Remaining (at 16-23 hours) pH 6.6 [5]: 0%; Buffer Stability (37° C.) % Remaining (at 16-23 hours) pH 7.4 [5]: 0%; Buffer Stability (37° C.) % Remaining (at 16-23 hours) pH 9 [5]: 0%; Plasma Stability (37° C.) % Remaining (3-3.5 hours) rat [6]: 42%; Plasma Stability (37° C.) % Remaining (3-3.5 hours) nude mouse [7]: 34%
2 | – | – | COc1ccc2c(c1)c(/C=C1\Oc3cc(OC(=O)N4CCN(Cc5ccccc5)CC4)cc(OC(=O)N4CCN(Cc5ccccc5)CC4)c3C1=O)cn2CCCN(C)C [Example 37, (2Z)-2-({1-[3-(dimethylamino)propyl]-5-methoxy-1H-indol-3-yl}methylene)-3-oxo-2,3-dihydro-1-benzofuran-4,6-diyl bis(4-benzylpiperazine-1-carboxylate)] | – | 0 10e−6 cm/s | < 5.00 | 5.78 | – | –
3 | – | – | COc1ccc2[nH]c(-c3ccccc3)c(/C=C3\Oc4cc(OP(=O)(O)c5ccccc5)ccc4C3=O)c2c1 [Example 26, (2Z)-2-[(5-methoxy-2-phenyl-1H-indol-3-yl)methylene]-3-oxo-2,3-dihydro-1-benzofuran-6-yl hydrogen phenylphosphonate] | > 30 | 0 10e−6 cm/s | 6.97 | 5.66 | 11 (≈ 21 µM) | –
4 | – | – | COc1ccc2c(c1)c(/C=C1\Oc3cc(OC(=O)N4CCN(C)CC4)cc(OC(=O)N4CCN(C)CC4)c3C1=O)cn2CCCN(C)C [Example 36, (2Z)-2-({1-[3-(dimethylamino)propyl]-5-methoxy-1H-indol-3-yl}methylene)-3-oxo-2,3-dihydro-1-benzofuran-4,6-diyl bis(4-methylpiperazine-1-carboxylate)] | – | 0.23 10e−6 cm/s | < 5.00 | 5.97 | 36 (≈ 54.5 µM) | –
5 | – | – | COc1ccc2c(c1)c(/C=C1\Oc3cc(O)cc(OC(=O)N(C)C)c3C1=O)c(C)n2CCN1CCN(C)CC1 [Example 39, (2Z)-6-hydroxy-2-({5-methoxy-2-methyl-1-[2-(4-methylpiperazin-1-yl)ethyl]-1H-indol-3-yl}methylene)-3-oxo-2,3-dihydro-1-benzofuran-4-yldimethylcarbamate] | 27 | 0 10e−6 cm/s | 6.07 | – | > 100 | pIC50 (mTOR): < 5.40
6 | – | – | COc1ccc2c(c1)c(/C=C1\Oc3cc(OC(=O)N4CCOCC4)cc(OC(=O)N4CCOCC4)c3C1=O)cn2CCCN(C)C [Example 1, (2Z)-2-({1-[3-(dimethylamino)propyl]-5-methoxy-1H-indol-3-yl}methylene)-3-oxo-2,3-dihydro-1-benzofuran-4,6-diyl dimorpholine-4-carboxylate] | > 30 | 1.4 10e−6 cm/s | < 5.00 | < 5.40 | > 100 | –
7 | 11 | > 30 | COc1ccc2c(c1)c(/C=C1\Oc3cc(O)cc(O)c3C1=O)c(C)n2CCN1CCN(C)CC1 [(2Z)-4,6-dihydroxy-2-({5-methoxy-2-methyl-1-[2-(4-methylpiperazin-1-yl)ethyl]-1H-indol-3-yl}methylene)-1-benzofuran-3(2H)-one] | 21 | 0 10e−6 cm/s | – | 7.65 | 32 (≈ 69 µM) | half-life [1, 13]: 17 min; half-life [2, 14]: 25 min; half-life [3, 15]: 6 min; Buffer Stability (37° C.) % Remaining (at 16-23 hours) SGF [5]: 99%; Buffer Stability (37° C.) % Remaining (at 16-23 hours) SIF [5]: 63%; Buffer Stability (37° C.) % Remaining (at 16-23 hours) pH 1 [5]: 99%; Buffer Stability (37° C.) % Remaining (at 16-23 hours) pH 4.5 [5]: 78%; Buffer Stability (37° C.) % Remaining (at 16-23 hours) pH 6.6 [5]: 63%; Buffer Stability (37° C.) % Remaining (at 16-23 hours) pH 7.4 [5]: 66%; Buffer Stability (37° C.) % Remaining (at 16-23 hours) pH 9 [5]: 79%
8 | – | – | COc1ccc2c(c1)c(/C=C1\Oc3cc(OC(=O)N(C)C)cc(O)c3C1=O)cn2CCCN(C)C [Example 42, (2Z)-2-({1-[3-(dimethylamino)propyl]-5-methoxy-1H-indol-3-yl}methylene)-4-hydroxy-3-oxo-2,3-dihydro-1-benzofuran-6-yl dimethylcarbamate] | – | – | 5.55 | < 4.70 | – | –
9 | – | – | CNC(=O)Oc1ccc2c(c1)C(=O)/C(=C/c1cn(CCN3CCN(C)CC3)c3ccc(OC)cc13)O2 [Example 45, (2Z)-2-({5-methoxy-1-[2-(4-methylpiperazin-1-yl)ethyl]-1H-indol-3-yl}methylene)-3-oxo-2,3-dihydro-1-benzofuran-5-yl methylcarbamate] | 9 | 0.43 10e−6 cm/s | – | < 5.40 | 63 (≈ 128 µM) | –
10 | – | – | CCOC(=O)CNC(=O)Oc1ccc2c(c1)O/C(=C\c1cn(CCCN(C)C)c3ccc(OC)cc13)C2=O [Example 25, ethyl N-({[(2Z)-2-({1-[3-(dimethylamino)propyl]-5-methoxy-1H-indol-3-yl}methylene)-3-oxo-2,3-dihydro-1-benzofuran-6-yl]oxy}carbonyl)glycinate] | – | 0 10e−6 cm/s | 7.07 | 6.21 | > 100 | –
11 | 24 | 29 | COc1ccc2[nH]c(-c3ccccc3)c(C=C3Oc4cc(O)cc(O)c4C3=O)c2c1 [4,6-dihydroxy-2-[(5-methoxy-2-phenyl-1H-indol-3-yl)methylene]-1-benzofuran-3(2H)-one] | > 30 | 0 10e−6 cm/s | – | 7.10 | – | Papp A→B ([8]; a − b (first value of cell), read-out: CACO2 Pe a − b): 1.25 ×10⁻⁶ cm/s; Papp B→A ([8]; b − a (second value of cell), read-out: CACO2 Pe b − a): 6.65 ×10⁻⁶ cm/s; half-life [1, 13]: 5 min; half-life [2, 14]: 5 min; half-life [3, 15]: 5 min; Buffer Stability (37° C.) % Remaining (at 16-23 hours) SGF [5]: 95%; Buffer Stability (37° C.) % Remaining (at 16-23 hours) SIF [5]: 77%; Buffer Stability (37° C.) % Remaining (at 16-23 hours) pH 1 [5]: 97%; Buffer Stability (37° C.) % Remaining (at 16-23 hours) pH 4.5 [5]: 96%; Buffer Stability (37° C.) % Remaining (at 16-23 hours) pH 6.6 [5]: 83%; Buffer Stability (37° C.) % Remaining (at 16-23 hours) pH 7.4 [5]: 68%; Buffer Stability (37° C.) % Remaining (at 16-23 hours) pH 9 [5]: 72%; plasma prodrug, Dosed @ 50 mg, kg po (precursor phenolic compound dosed) ([9]; 1 h conc.): bql, bql*; plasma prodrug, Dosed @ 50 mg, kg po (precursor phenolic compound dosed) ([9]; 4 h conc.): bql, bql*
12 | 5 | > 30 | COc1ccc2[nH]c(-c3ccccc3)c(/C=C3\Oc4cc(OC(=O)OC(C)C)cc(OC(=O)OC(C)C)c4C3=O)c2c1 [Example 7, diisopropyl (2Z)-2-[(5-methoxy-2-phenyl-1H-indol-3-yl)methylene]-3-oxo-2,3-dihydro-1-benzofuran-4,6-diyl biscarbonate] | 3 | 0 10e−6 cm/s | – | – | – | pIC50 (PI3K alpha; read-out: PI3K alpha Mean IC50): 6.05; Buffer Stability (37° C.) % Remaining (at 16-23 hours) SGF [5]: 93%; Buffer Stability (37° C.) % Remaining (at 16-23 hours) SIF [5]: 0%; Buffer Stability (37° C.) % Remaining (at 16-23 hours) pH 1 [5]: 94%; Buffer Stability (37° C.) % Remaining (at 16-23 hours) pH 4.5 [5]: 91%; Buffer Stability (37° C.) % Remaining (at 16-23 hours) pH 6.6 [5]: 59%; Buffer Stability (37° C.) % Remaining (at 16-23 hours) pH 7.4 [5]: 16%; Buffer Stability (37° C.) % Remaining (at 16-23 hours) pH 9 [5]: 0%; Plasma Stability (37° C.) % Remaining (3-3.5 hours) rat [6]: 0%; Plasma Stability (37° C.) % Remaining (3-3.5 hours) nude mouse [7]: 22%
13 | 6 | 26 | COc1ccc2c(c1)c(/C=C1\Oc3cc(O)ccc3C1=O)c(C)n2CCN1CCN(C)CC1 [(2Z)-6-hydroxy-2-({5-methoxy-2-methyl-1-[2-(4-methylpiperazin-1-yl)ethyl]-1H-indol-3-yl}methylene)-1-benzofuran-3(2H)-one] | 12 | 0.01 10e−6 cm/s | – | 6.49 | 68 (≈ 152 µM) | pIC50 (PI3K alpha; read-out: PI3K alpha Mean IC50): 7.91; half-life [1, 13]: 5 min; half-life [2, 14]: 20 min; half-life [3, 15]: 8 min

Row | Structure (SMILES) | half-life [1, 10] [min] | half-life [2, 11] [min] | half-life [3, 12] [min] | PAMPA Pe [4] | pIC50 (PI3K alpha) | pIC50 (mTOR; read-out: mTOR Mean IC50) | solubility (Solubility pH 7.4) [µg/mL] | further results
14 | COc1ccc2[nH]c(-c3ccccc3)c(/C=C3\Oc4cc(OC(=O)N(C(C)C)C(C)C)cc(OC(=O)N(C(C)C)C(C)C)c4C3=O)c2c1 [Example 31, (2Z)-2-[(5-methoxy-2-phenyl-1H-indol-3-yl)methylene]-3-oxo-2,3-dihydro-1-benzofuran-4,6-diyl bis(diisopropylcarbamate)] | 7 | – | 9 | 0 10e−6 cm/s | – | 6.29 | – | pIC50 (PI3K alpha; read-out: PI3K alpha Mean IC50): 6.57; half-life ([2]; Phase I (NADPH), read-out: Microsome Stability (15 min) T ½ Phase I nude mouse): > 30 min
